Data taken from ChEMBL document CHEMBL1152560, “Substituted 2-arylbenzothiazoles as kinase inhibitors: hit-to-lead optimization” (Bioorg Med Chem, 2009).

Assays:
[1] = biological target: Mitogen-activated protein kinase 1 (Homo sapiens) (UniProt P28482); experiment: Residual activity of ERK2 at 10 uM by microplate scintillation counting
[2] = biological target: Interferon-induced, double-stranded RNA-activated protein kinase (Homo sapiens) (UniProt P19525); experiment: Residual activity of EIF2AK2 at 0.1 uM by microplate scintillation counting
Chain of Interferon-induced, double-stranded RNA-activated protein kinase (Homo sapiens) (P19525 whole entry): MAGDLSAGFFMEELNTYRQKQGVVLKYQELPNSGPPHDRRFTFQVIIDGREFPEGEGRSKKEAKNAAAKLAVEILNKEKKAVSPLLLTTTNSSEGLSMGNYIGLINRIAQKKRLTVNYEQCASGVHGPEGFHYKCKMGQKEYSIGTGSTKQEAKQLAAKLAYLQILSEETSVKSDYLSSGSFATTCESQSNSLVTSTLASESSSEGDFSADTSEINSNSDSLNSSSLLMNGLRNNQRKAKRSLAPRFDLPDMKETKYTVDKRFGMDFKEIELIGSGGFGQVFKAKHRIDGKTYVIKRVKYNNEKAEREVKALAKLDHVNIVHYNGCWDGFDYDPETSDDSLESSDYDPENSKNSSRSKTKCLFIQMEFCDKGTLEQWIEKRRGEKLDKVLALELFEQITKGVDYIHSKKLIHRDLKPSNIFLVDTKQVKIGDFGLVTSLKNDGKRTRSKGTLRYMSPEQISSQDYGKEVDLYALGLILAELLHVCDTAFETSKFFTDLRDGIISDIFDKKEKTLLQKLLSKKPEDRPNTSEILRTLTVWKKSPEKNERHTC

[3] = biological target: T1, Ephrin type-B receptor 3 (Homo sapiens) (UniProt P54753); experiment: Residual activity of EPHB3 at 10 uM by microplate scintillation counting
T1 sequence (whole entry): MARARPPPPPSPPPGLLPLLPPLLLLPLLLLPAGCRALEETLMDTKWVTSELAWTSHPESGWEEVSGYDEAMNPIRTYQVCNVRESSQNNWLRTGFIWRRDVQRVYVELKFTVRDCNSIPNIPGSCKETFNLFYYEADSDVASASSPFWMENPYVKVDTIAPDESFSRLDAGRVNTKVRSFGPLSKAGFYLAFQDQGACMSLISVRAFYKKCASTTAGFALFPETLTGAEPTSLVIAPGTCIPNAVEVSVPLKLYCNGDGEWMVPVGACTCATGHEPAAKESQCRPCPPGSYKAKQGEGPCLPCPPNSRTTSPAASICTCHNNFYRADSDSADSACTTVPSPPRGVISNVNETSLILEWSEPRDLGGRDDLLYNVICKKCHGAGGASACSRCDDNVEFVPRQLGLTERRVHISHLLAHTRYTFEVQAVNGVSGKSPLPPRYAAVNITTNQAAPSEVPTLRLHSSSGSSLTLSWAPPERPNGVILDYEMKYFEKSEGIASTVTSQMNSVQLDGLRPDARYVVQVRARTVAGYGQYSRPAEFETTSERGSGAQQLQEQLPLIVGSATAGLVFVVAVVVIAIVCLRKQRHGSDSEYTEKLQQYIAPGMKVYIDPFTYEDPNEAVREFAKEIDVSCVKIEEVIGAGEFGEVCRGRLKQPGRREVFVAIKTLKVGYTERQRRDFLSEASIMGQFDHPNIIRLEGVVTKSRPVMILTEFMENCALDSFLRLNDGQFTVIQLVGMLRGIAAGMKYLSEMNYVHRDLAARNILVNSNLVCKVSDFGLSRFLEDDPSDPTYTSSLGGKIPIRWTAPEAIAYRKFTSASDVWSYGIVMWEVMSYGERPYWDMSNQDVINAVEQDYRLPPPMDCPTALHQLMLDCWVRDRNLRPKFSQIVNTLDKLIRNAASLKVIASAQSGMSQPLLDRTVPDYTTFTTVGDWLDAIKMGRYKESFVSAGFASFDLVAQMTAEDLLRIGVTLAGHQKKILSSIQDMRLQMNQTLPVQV

[4] = biological target: Mitogen-activated protein kinase 9 (Homo sapiens) (UniProt P45984); experiment: Residual activity of JNK2 at 10 uM by microplate scintillation counting
Chain of Mitogen-activated protein kinase 9 (Homo sapiens) (P45984 whole entry, looked up): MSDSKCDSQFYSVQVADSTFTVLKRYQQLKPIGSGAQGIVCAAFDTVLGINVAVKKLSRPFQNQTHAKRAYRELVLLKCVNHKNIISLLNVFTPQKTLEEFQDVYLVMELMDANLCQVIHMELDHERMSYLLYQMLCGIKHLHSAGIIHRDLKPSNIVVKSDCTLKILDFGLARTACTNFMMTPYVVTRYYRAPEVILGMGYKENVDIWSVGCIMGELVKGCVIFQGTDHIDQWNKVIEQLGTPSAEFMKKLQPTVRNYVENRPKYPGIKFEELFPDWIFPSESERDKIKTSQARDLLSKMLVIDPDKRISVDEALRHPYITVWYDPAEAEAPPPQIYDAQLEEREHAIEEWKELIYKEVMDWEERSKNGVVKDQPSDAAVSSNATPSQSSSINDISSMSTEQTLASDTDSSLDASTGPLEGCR

[5] = biological target: Serine/threonine-protein kinase 26 (Homo sapiens) (UniProt Q9P289); experiment: Residual activity of MST4 at 0.1 uM by microplate scintillation counting
Chain of Serine/threonine-protein kinase 26 (Homo sapiens) (Q9P289 2-416 limits assumed): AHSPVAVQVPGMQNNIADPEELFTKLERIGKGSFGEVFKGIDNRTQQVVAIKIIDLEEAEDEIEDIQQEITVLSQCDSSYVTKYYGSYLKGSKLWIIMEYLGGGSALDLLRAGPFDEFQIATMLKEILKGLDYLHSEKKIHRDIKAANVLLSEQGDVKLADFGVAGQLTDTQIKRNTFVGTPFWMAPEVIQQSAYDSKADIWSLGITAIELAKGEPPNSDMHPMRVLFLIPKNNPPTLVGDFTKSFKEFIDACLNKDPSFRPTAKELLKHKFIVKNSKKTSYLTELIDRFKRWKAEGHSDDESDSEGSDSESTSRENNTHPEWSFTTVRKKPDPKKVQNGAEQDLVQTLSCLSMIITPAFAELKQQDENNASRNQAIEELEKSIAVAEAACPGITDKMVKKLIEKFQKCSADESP

[6] = biological target: Tyrosine-protein kinase BTK (Homo sapiens) (UniProt Q06187); experiment: Residual activity of BTK at 0.1 uM by microplate scintillation counting
Chain of Tyrosine-protein kinase BTK (Homo sapiens) (Q06187 whole entry): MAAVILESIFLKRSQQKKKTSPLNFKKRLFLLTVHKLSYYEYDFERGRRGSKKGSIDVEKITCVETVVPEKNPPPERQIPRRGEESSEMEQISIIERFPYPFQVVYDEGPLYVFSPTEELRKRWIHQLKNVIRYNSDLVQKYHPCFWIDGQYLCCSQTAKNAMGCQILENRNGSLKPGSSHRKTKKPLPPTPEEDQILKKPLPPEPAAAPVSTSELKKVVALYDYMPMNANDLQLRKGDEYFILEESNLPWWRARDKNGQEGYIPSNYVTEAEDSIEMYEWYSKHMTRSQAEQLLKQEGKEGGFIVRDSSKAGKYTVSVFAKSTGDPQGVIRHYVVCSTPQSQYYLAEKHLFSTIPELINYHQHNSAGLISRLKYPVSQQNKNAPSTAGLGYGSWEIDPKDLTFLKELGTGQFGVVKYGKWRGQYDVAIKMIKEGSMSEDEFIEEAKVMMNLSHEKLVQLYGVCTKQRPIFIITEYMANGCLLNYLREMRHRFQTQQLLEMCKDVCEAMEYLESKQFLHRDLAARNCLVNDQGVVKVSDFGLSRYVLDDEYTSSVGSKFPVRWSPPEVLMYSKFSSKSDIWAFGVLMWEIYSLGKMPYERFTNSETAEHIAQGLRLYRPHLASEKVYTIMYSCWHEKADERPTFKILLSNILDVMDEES

[7] = biological target: CDK8/Cyclin C (Homo sapiens) (UniProt P49336+P24863); experiment: Residual activity of CDK8/Cyclin C at 1 uM by microplate scintillation counting; format: protein-complex assay
[8] = biological target: Proto-oncogene tyrosine-protein kinase receptor Ret (Homo sapiens) (UniProt P07949); experiment: Residual activity of RET at 1 uM by microplate scintillation counting
Chain of Proto-oncogene tyrosine-protein kinase receptor Ret (Homo sapiens) (P07949 whole entry): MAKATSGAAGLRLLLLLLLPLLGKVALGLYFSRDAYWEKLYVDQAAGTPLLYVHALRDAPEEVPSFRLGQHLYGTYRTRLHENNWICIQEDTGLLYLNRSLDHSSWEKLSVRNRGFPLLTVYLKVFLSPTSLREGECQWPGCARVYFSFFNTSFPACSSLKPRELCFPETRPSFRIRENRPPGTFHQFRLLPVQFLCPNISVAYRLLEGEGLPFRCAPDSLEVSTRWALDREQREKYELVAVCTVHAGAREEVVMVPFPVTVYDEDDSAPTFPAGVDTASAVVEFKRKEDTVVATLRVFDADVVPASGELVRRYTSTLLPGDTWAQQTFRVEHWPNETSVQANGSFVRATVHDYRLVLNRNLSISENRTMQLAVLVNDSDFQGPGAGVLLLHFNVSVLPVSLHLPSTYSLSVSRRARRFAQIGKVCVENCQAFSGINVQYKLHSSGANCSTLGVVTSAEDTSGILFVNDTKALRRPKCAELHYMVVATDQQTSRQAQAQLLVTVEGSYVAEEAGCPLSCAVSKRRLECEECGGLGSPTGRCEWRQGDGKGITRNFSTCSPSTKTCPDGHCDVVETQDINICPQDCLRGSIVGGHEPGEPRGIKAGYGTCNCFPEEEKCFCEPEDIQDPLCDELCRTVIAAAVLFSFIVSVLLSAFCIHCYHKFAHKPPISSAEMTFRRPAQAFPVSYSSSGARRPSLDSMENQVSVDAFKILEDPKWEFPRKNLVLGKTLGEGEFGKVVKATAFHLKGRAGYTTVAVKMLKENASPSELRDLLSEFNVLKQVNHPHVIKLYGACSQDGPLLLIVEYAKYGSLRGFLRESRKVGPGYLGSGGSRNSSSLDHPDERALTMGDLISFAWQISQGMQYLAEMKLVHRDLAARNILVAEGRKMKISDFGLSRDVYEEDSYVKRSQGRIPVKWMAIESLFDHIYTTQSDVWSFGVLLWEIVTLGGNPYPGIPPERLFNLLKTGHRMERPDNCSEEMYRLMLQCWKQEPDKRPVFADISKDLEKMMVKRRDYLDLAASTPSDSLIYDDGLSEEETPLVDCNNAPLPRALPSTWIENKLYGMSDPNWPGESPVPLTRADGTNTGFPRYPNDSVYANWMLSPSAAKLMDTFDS

[9] = biological target: Tyrosine-protein kinase ABL2 (Homo sapiens) (UniProt P42684); experiment: Residual activity of ABL2 at 10 uM by microplate scintillation counting
Chain of Tyrosine-protein kinase ABL2 (Homo sapiens) (P42684 whole entry): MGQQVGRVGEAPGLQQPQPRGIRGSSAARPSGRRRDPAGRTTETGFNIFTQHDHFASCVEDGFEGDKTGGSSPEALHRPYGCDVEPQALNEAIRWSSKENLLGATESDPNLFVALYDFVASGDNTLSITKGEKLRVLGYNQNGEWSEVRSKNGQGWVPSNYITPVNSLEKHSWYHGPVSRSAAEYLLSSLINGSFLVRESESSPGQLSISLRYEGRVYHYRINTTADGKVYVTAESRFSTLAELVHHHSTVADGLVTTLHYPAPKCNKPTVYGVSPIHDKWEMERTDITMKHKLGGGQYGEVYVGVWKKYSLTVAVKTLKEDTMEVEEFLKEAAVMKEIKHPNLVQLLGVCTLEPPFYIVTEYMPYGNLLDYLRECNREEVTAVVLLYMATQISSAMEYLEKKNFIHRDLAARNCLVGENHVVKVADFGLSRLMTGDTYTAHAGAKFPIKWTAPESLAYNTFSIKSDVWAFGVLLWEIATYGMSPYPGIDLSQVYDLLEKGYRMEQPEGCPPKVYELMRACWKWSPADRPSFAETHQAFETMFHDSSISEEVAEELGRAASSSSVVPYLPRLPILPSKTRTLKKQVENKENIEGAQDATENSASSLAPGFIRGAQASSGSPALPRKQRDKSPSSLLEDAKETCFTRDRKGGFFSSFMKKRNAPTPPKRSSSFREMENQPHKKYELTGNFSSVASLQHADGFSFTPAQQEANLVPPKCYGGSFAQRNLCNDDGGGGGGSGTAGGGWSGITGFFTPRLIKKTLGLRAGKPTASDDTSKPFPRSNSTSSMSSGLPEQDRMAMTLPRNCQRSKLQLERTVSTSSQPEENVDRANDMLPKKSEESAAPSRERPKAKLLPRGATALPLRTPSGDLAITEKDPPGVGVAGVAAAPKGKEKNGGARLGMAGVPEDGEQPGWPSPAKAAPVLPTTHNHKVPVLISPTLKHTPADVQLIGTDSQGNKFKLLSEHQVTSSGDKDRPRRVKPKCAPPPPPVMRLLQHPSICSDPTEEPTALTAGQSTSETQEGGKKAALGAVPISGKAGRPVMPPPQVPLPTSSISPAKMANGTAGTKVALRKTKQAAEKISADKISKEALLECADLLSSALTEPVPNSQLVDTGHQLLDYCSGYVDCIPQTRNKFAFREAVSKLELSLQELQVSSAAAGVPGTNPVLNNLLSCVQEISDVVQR

[10] = biological target: T2, Protein kinase C iota type (Homo sapiens) (UniProt P41743); experiment: Residual activity of PKCiota at 0.1 uM by microplate scintillation counting
T2 sequence (whole entry): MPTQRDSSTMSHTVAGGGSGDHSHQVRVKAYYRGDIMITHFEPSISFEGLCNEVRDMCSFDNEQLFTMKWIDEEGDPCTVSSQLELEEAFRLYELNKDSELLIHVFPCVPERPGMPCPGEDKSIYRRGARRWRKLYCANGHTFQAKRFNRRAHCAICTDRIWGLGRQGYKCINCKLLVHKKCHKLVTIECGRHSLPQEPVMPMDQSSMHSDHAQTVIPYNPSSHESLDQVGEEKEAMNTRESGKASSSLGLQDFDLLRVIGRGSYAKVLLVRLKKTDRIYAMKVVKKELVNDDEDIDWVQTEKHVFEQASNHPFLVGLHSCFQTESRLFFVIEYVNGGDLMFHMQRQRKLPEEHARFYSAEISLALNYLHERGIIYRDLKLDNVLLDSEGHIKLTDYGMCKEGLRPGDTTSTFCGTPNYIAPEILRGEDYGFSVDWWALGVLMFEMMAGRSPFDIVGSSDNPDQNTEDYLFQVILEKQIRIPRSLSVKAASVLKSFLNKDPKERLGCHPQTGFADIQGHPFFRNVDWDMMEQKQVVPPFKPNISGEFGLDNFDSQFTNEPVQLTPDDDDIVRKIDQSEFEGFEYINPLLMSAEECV

[11] = biological target: T3, Dual specificity protein kinase TTK (Homo sapiens) (UniProt P33981); experiment: Residual activity of TTK at 0.1 uM by microplate scintillation counting
T3 sequence (whole entry): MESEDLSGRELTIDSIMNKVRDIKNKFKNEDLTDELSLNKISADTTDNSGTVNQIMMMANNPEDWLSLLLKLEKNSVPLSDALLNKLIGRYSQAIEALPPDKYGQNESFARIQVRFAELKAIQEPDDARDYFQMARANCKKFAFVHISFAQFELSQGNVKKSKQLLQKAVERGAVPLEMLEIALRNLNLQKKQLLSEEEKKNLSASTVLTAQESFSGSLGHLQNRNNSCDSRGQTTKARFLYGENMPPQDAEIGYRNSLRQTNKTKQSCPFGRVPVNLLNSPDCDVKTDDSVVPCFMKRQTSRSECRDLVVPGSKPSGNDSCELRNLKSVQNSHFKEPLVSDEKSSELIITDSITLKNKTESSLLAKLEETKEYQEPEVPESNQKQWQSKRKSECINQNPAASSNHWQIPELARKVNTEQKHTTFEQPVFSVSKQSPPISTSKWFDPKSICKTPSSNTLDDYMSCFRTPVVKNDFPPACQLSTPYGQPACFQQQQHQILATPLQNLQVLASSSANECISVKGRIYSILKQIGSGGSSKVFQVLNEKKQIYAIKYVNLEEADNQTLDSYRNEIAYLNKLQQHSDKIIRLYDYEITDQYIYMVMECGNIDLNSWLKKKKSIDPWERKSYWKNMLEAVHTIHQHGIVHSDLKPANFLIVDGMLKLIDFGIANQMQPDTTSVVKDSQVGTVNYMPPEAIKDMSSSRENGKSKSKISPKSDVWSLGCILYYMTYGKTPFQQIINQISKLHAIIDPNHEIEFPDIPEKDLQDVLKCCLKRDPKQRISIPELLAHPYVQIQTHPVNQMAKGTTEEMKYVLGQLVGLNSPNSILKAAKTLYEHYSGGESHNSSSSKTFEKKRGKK

Chain of Mitogen-activated protein kinase 1 (Homo sapiens) (P28482 whole entry): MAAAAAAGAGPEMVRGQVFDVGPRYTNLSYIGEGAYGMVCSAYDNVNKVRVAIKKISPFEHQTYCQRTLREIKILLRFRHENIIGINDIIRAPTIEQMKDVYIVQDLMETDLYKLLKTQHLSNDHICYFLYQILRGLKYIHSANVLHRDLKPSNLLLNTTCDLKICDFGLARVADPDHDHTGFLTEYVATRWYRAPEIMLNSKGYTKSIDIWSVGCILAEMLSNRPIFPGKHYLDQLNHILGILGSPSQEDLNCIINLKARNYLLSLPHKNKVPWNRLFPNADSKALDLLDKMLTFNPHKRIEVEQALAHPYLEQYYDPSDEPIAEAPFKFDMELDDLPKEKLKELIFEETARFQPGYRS

Row | residual activity [1] [%] | residual activity [2] [%] | residual activity [3] [%] | residual activity [4] [%] | residual activity [5] [%] | residual activity [6] [%] | residual activity [7] [%] | residual activity [8] [%] | residual activity [9] [%] | residual activity [10] [%] | residual activity [11] [%] | Structure (SMILES)
1 | 144 | 82 | 227 | 93 | 93 | 106 | 95 | 81 | 147 | 102 | 99 | COc1cc2c(Oc3ccc(-c4nc5ccccc5s4)cc3)ncnc2cc1OCCCN1CCCC1
2 | 161 | 70 | 372 | 96 | 106 | 100 | 79 | 68 | 170 | 105 | 89 | COc1cc2c(Oc3ccc(-c4nc5ccccc5s4)cc3)ncnc2cc1OCCCN1CCN(C)CC1
3 | 163 | 95 | 105 | 122 | 107 | 101 | 81 | 58 | 93 | 87 | 82 | COc1cc2c(Oc3ccc(-c4nc5ccccc5s4)cc3F)ncnc2cc1OCCCN1CCN(C)CC1
